Two compounds from article PMC4176827 (Molecular and biochemical parasitology, 2014) can be followed below.

Molecules are shown by their SMILES.

The target of assay [1] is T1, CpDHS (Cryptosporidium parvum, UniProt A3FQA5).
T1 sequence (A3FQA5 1-362): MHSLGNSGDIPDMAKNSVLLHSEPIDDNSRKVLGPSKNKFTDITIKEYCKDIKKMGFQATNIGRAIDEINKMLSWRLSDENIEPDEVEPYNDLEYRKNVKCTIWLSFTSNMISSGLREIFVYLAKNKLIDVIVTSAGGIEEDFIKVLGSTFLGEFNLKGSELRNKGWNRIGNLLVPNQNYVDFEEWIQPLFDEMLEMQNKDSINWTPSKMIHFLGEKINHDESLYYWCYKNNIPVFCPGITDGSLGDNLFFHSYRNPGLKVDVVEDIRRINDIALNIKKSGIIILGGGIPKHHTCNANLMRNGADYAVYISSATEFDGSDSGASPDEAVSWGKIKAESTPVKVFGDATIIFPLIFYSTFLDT
The experiment in a line: radiometric deoxyhypusine synthase assay. Type of assay: biochemical. Particulars: read-out: % inhibition at 1 μM.

Assay [2] deals with T1, CpDHS. The experiment in a line: fluorescence of enzyme-bound NADH. Type of assay: biochemical. Particulars: 100 µM spermidine, no eIF5A, 0.2 M glycine buffer pH 9.2.

With `N=C(N)NCCCCCCCN` [GC7, N^1-guanyl-1,7-diaminoheptane], in assay [1], the inhibition at 1 µM is above 90%.
Consider `NC(=O)c1ccc[n+]([C@@H]2O[C@H](COP(=O)(O)OP(=O)(O)OC[C@H]3O[C@@H](n4cnc5c(N)ncnc54)[C@H](O)[C@@H]3O)[C@@H](O)[C@H]2O)c1` [NAD^+], for which the “fluorescence of enzyme-bound NADH (excitation 340 nm, emission 441 nm)” value in assay [2] was “both spermidine and NAD^+ are required for NADH fluorescence”.
